According to patent US9073858B2, “Methods of targeted drug development” (priority 2010, dated 2015):
Like-named read-outs stand apart in the source and are kept apart here.

Tests used:
[1] = Stability on incubation with human liver microsomes (HLM); format: in vitro ADME; conditions: percentage left after incubation with human liver microsomes for 30 minutes
Procedure: (§1) Stability of hydroxyquinoline analogs were determined (see e.g., TABLE 18). MLM represents the percentage left after incubation with mouse liver microsomes for 30 minutes. HLM represents the percentage left after incubation with human liver microsomes for 30 minutes.
(§2) Stability of analogs having a benzaldehyde derived ring were determined (see e.g., TABLE 18). MLM represents the percentage left after incubation with mouse liver microsomes for 30 minutes. HLM represents the percentage left after incubation with human liver microsomes for 30 minutes.

[2] = Stability on incubation with mouse liver microsomes (MLM); format: in vitro ADME; conditions: percentage left after incubation with mouse liver microsomes for 30 minutes
Procedure: as §1, §2

EGFR = biological target: T1, EGFR (Homo sapiens, UniProt P00533); test: EGFR in-cell Western (ICW) screening protocol; format: cell-based; parameters: unit not given here; conditions: for ICW Screen: initial screen
T1 construct: endogenous in cells; host or cells: A431 cells (ATCC CRL-1555)
T1 sequence (P00533 25-1210): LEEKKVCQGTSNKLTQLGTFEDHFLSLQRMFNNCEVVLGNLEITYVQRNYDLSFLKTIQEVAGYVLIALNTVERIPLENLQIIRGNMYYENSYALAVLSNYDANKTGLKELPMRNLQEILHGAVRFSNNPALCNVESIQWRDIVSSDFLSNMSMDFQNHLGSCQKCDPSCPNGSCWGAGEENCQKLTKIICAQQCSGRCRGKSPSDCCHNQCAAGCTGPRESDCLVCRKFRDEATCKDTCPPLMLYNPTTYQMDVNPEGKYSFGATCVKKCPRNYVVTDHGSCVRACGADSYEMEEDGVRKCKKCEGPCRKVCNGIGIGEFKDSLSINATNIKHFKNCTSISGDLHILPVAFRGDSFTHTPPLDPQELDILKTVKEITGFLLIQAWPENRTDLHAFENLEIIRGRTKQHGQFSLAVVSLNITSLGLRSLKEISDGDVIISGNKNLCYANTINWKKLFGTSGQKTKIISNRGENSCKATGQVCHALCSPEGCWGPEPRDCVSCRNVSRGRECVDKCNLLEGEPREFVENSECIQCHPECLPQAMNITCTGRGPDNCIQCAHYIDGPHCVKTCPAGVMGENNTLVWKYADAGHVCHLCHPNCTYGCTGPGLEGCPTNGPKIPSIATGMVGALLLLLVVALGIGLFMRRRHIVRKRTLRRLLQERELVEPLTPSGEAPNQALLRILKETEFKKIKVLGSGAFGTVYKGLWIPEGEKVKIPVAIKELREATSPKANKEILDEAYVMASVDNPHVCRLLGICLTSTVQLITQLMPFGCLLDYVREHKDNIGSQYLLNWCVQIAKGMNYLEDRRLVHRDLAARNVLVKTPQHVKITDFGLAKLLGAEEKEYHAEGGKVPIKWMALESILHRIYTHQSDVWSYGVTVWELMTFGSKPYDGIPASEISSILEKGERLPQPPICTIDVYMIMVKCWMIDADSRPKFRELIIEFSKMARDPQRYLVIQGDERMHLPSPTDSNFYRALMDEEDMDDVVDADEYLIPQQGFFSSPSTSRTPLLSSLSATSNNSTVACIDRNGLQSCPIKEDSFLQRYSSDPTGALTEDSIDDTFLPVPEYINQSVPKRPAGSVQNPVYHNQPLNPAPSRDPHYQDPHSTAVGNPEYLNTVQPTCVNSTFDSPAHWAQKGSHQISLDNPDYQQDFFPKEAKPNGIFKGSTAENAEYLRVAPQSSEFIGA
Method in brief: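 Serum-starved cells treated with compound 4 h at 37 °C, then stimulated with EGF (20 or 0 ng/ml solution added) in its continued presence. In-cell Western on fixed cells: phospho-EGFR (800 channel) normalised to total EGFR (700 channel), % inhibition calculated against EGF-stimulated and unstimulated no-compound wells.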

MDBK line = test: MTT Cell Proliferation Assay, MDBK line; format: cell-based, bovine; conditions: Bos taurus, MDBK
Method in brief: (§3)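 Cells plated overnight, then exposed 3 days at 37 °C, 5% CO2 to compound in growth medium with 0.5% FBS and 0.5% DMSO final (0.5% DMSO as control).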

[3] = test system: epithelial carcinoma A431 cell line; test: MTT Cell Proliferation Assay, A431 cell line; format: cell-based; conditions: for MTT (10 Point follow-up) ratio / MTT-72 h A431/MDBK (ratio): value in brackets; for MTT (10 Point follow-up) ratio: numerically MDBK over A431; for MTT-72 h A431/MDBK (ratio): numerically MDBK value over A431 value; for IC50: Homo sapiens
Method in brief: as §3

[4] = 10 point follow-up, second value of pair, read-out: MTT (10 Point follow-up) MDBK
[5] = 72 h, second value of A431/MDBK pair, read-out: MTT-72 h MDBK
[6] = A-431, 10 point follow-up, first value of pair, read-out: MTT (10 Point follow-up) A431
[7] = A-431, 72 h, 72 h, first value of A431/MDBK pair, read-out: MTT-72 h A431

Compound | HLM % Remaining@ 30 Min [1] [%] | MLM % Remaining@ 30 Min [2] [%] | further results
COc1ccc(C(Nc2cccc(C)n2)c2ccc3cccnc3c2O)cc1O (centres unmarked) [AD4-12909] | 50 | 13 | 
Cc1cccc(NC(c2ccc(OC(F)(F)F)cc2)c2ccc3cccnc3c2O)n1 (centres unmarked) [AD4-12902] | 72 | 17 | 
Oc1c(C(Nc2ccc(Cl)cn2)c2ccc(Cl)c(Cl)c2)ccc2cccnc12 (centres unmarked) [AD4-13054] | 80 | 46 | 
Cc1cccc(NC(c2cc(Cl)cc(Cl)c2)c2ccc3ccc(C)nc3c2O)n1 (centres unmarked) [AD4-13075] | 64 | 13 | 
Cc1cccc(NC(c2ccc(Cl)c(Cl)c2)c2ccc3cccnc3c2O)n1 (centres unmarked) [AD4-12916] | 80 | 26 | 
Cc1ccnc(NC(c2ccccc2Cl)c2ccc3cccnc3c2O)c1 (centres unmarked) [AD4-12907] | 14 | 5 | 
Oc1c(C(Nc2ccc(Cl)cn2)c2ccc(Cl)c(C(F)(F)F)c2)ccc2cccnc12 (centres unmarked) [AD4-13067] | 89 | 46 | 
Oc1c(C(Nc2ccc(C(F)(F)F)cn2)c2ccc(F)cc2F)ccc2cccnc12 (centres unmarked) [AD4-13029] | 76 | 77 | 
Cc1ccc2ccc(C(Nc3ncc(Cl)cc3C)c3ccc(Cl)cc3Cl)c(O)c2n1 (centres unmarked) [AD4-13200] | 94 | 67 | 
Cc1cccc(NC(c2ccc3cccnc3c2O)c2c(F)c(F)cc(F)c2F)n1 (centres unmarked) [AD4-12918] | 51 | 15 | 
Cc1cccc(NC(c2ccc(F)cc2Cl)c2ccc3cccnc3c2O)n1 (centres unmarked) [AD4-13024] | 47 | 20 | 
Cc1cc(Cl)cnc1NC(c1ccc2cccnc2c1O)c1c(F)c(F)cc(F)c1F (centres unmarked) [AD4-13059] | 92 | 64 | 
Oc1c(C(Nc2ccc(C(F)(F)F)cn2)c2cc(C(F)(F)F)ccc2Cl)ccc2cccnc12 (centres unmarked) [AD4-13056] | 88 | 85 | 
Oc1c(C(Nc2ccc(Cl)cn2)c2cc(Cl)cc(Cl)c2)ccc2cccnc12 (centres unmarked) [AD4-13094] | 85 | 52 | 
Cc1cccc(NC(c2cc(Cl)cc(Cl)c2)c2ccc3cccnc3c2O)n1 (centres unmarked) [AD4-12913] | 61 | 41 | 
Cc1cc(NC(c2ccc(C(F)(F)F)c(F)c2)c2ccc3cccnc3c2O)ncc1Cl (centres unmarked) [AD4-13106] | 86 | 42 | 
Cc1cc(NC(c2ccc(Cl)c(Cl)c2)c2ccc3cccnc3c2O)ncc1Cl (centres unmarked) [AD4-13166] | 100 | 71 | 
Cc1cccc(NC(c2cc(Cl)cc(Cl)c2Cl)c2ccc3cccnc3c2O)n1 (centres unmarked) [AD4-13023] | 95 | 60 | 
Cc1cccc(NC(c2ccc(Cl)cc2Cl)c2ccc3cccnc3c2O)n1 (centres unmarked) [AD4-12911] | 57 | 17 | 
Cc1cccc(NC(c2cc(Cl)cc(Cl)c2)c2cc(Cl)c3cccnc3c2O)n1 (centres unmarked) [AD4-13076] | 70 | 28 | 
Cc1ccnc(NC(c2cc(Cl)cc(Cl)c2)c2ccc3cccnc3c2O)c1 (centres unmarked) [AD4-12915] | 71 | 25 | 
Cc1ccnc(NC(c2ccc(Cl)c(Cl)c2)c2ccc3cccnc3c2O)c1 (centres unmarked) [AD4-12917] | 53 | 11 | 
Oc1c(C(Nc2ccc(C(F)(F)F)nc2)c2ccc(C(F)(F)F)cc2F)ccc2cccnc12 (centres unmarked) [AD4-13065] | 83 | 47 | 
Oc1c(C(Nc2ccc(F)cn2)c2ccc(C(F)(F)F)c(F)c2)ccc2cccnc12 (centres unmarked) [AD4-13061] | 93 | 58 | 
Cc1cccc(NC(c2cc(Cl)ccc2Cl)c2ccc3cccnc3c2O)n1 (centres unmarked) [AD4-12955] | 61 | 41 | 

Compound | HLM % Remaining@ 30 Min [1] [%] | MLM % Remaining@ 30 Min [2] [%] | further results
Oc1c(C(Nc2cc(Cl)ccn2)c2ccc(F)cc2F)ccc2cccnc12 (centres unmarked) [AD4-13045] | 77 | 26 | 
Cc1cc(NC(c2cc(Cl)cc(Cl)c2)c2ccc3cccnc3c2O)ncc1F (centres unmarked) [AD4-13114] | 99 | 40 | 
Cc1cc(Cl)cnc1NC(c1ccc(F)cc1F)c1ccc2cccnc2c1O (centres unmarked) [AD4-13068] | 96 | 46 | 
Cc1ccnc(NC(c2ccc(Cl)cc2Cl)c2ccc3cccnc3c2O)c1 (centres unmarked) [AD4-12912] | 38 | 10 | 
Oc1c(C(Nc2ccc(Cl)cn2)c2ccc(C(F)(F)F)cc2)ccc2cccnc12 (centres unmarked) [AD4-13053] | 97 | 46 | 
Cc1cccc(NC(c2ccc(C)c(F)c2F)c2ccc3ccc(C)nc3c2O)n1 (centres unmarked) [AD4-13022] | 36 | 5 | 
Oc1c(C(Nc2ccc(C(F)(F)F)nc2)c2ccc(C(F)(F)F)c(F)c2)ccc2cccnc12 (centres unmarked) [AD4-13051] | 72 | 40 | 
Cc1cc(NC(c2cccc(C(F)(F)F)c2)c2ccc3cccnc3c2O)ncc1Cl (centres unmarked) [AD4-13107] | 83 | 28 | 
Cc1nc(NC(c2ccc(Cl)c(Cl)c2)c2ccc3cccnc3c2O)c(Cl)cc1Cl (centres unmarked) [AD4-13202] | 100 | 97 | 
Cc1cccc(NC(c2cccc(Cl)c2Cl)c2ccc3cccnc3c2O)n1 (centres unmarked) [AD4-12905] | 63 | 23 | 
Cc1cccc(NC(c2cccc(C(F)(F)F)c2)c2ccc3cccnc3c2O)n1 (centres unmarked) [AD4-12903] | 46 | 18 | 
Oc1c(C(Nc2ccc(Cl)cn2)c2ccc(C(F)(F)F)c(F)c2)ccc2cccnc12 (centres unmarked) [AD4-13055] | 100 | 57 | 
Oc1c(C(Nc2cccnc2)c2cccc(Cl)c2Cl)ccc2cccnc12 (centres unmarked) [AD4-12908] | 48 | 6 | 
Cc1cccc(NC(c2ccc3cccnc3c2O)c2c(F)cccc2Cl)n1 (centres unmarked) [AD4-12959] | 42 | 15 | 
Cc1cc(Cl)cnc1NC(c1ccc(C(F)(F)F)c(F)c1)c1ccc2cccnc2c1O (centres unmarked) [AD4-13043] | 98 | 77 | 
Oc1c(C(Nc2ccc(C(F)(F)F)nc2)c2ccc(C(F)(F)F)cc2)ccc2cccnc12 (centres unmarked) [AD4-13063] | 80 | 42 | 
Oc1c(C(Nc2ccccn2)c2ccccn2)cc(Cl)c2cccnc12 (centres unmarked) [compound 10954] |  |  | ICW Screen (EGFR): 31.09; IC50 (MDBK line; [4]): 2.17 µM; IC50 (MDBK line; [5]): 2.29 µM; MTT (10 Point follow-up) ratio [3]: 1.26; MTT-72 h A431/MDBK (ratio) ([3]; 72 h): 1.33; IC50 [3, 6]: 1.62 µM; IC50 [3, 7]: 1.72 µM
Cc1cc(Cl)cnc1NC(c1cc(C(F)(F)F)ccc1Cl)c1ccc2cccnc2c1O (centres unmarked) [AD4-13058] | 75 | 60 | 
COc1ccc(C(Nc2cc(C)ccn2)c2ccc3cccnc3c2O)cc1OC (centres unmarked) [compound 1969] |  |  | ICW Screen (EGFR): 29.61; ICW Re-Test (EGFR): 39.58; IC50 (MDBK line; [5]): 13.6 µM; MTT-72 h A431/MDBK (ratio) ([3]; 72 h): 0.90; IC50 [3, 7]: 15 µM
Cc1cccc(NC(c2cccc(Cl)c2)c2ccc3cccnc3c2O)n1 (centres unmarked) [compound 10043] |  |  | ICW Screen (EGFR): 34.63; IC50 (MDBK line; [4]): 5.29 µM; MTT (10 Point follow-up) ratio [3]: 0.97; IC50 [3, 6]: 5.46 µM
CCOc1ccc(C(Nc2ccccn2)c2ccc3ccc(C)nc3c2O)cc1OC (centres unmarked) [compound 1976] |  |  | ICW Screen (EGFR): 26.91; IC50 (MDBK line; [5]): 13 µM; MTT-72 h A431/MDBK (ratio) ([3]; 72 h): 0.50; IC50 [3, 7]: 26.2 µM
Cc1cccc(NC(c2ccc(F)cc2)c2ccc3cccnc3c2O)n1 (centres unmarked) [compound 10056] |  |  | ICW Screen (EGFR): 34.16; ICW Re-Test (EGFR): 44.46; IC50 (MDBK line; [5]): 5.18 µM; MTT-72 h A431/MDBK (ratio) ([3]; 72 h): 0.96; IC50 [3, 7]: 5.38 µM
Cc1ccnc(NC(c2ccc3cccnc3c2O)c2c(O)cccc2Cl)c1 (centres unmarked) [compound 10067] |  |  | ICW Screen (EGFR): 12.5; IC50 (MDBK line; [4]): 2.95 µM; IC50 (MDBK line; [5]): 3.45 µM; MTT (10 Point follow-up) ratio [3]: 2.14; MTT-72 h A431/MDBK (ratio) ([3]; 72 h): 1.60; IC50 [3, 6]: 1.38 µM; IC50 [3, 7]: 2.15 µM
COc1ccc(C(Nc2cc(C)ccn2)c2ccc3cccnc3c2O)c(OC)c1OC (centres unmarked) [compound 10031] |  |  | ICW Screen (EGFR): 34.62; IC50 (MDBK line; [5]): 6.09 µM; MTT-72 h A431/MDBK (ratio) ([3]; 72 h): 0.65; IC50 [3, 7]: 9.39 µM
Oc1ccccc1C(Nc1ccccn1)c1ccc2cccnc2c1O (centres unmarked) [compound 10427] |  |  | ICW Screen (EGFR): 43.39; ICW Re-Test (EGFR): 43.82; IC50 (MDBK line; [5]): 4.82 µM; MTT-72 h A431/MDBK (ratio) ([3]; 72 h): 0.87; IC50 [3, 7]: 5.56 µM
